The target in assay [1] is T1, SARS-CoV-2 PLpro (nsp3 1564–1878) (Severe acute respiratory syndrome coronavirus 2, UniProt P0DTD1). Put plainly: biochemical. On the set-up: FRET-quenched peptide (Pro3) cleavage by PLpro, 10 min pre-incubation, slope over 20 min, normalised to no-compound control. As to conditions: low concentration screen, read-out: % of control remaining.
Assay [2] has as its target T1, SARS-CoV-2 PLpro (nsp3 1564–1878). Put plainly: biochemical. On the set-up: FRET-quenched peptide (Pro3) cleavage by PLpro, 10 min pre-incubation, slope over 20 min, normalised to no-compound control. Particulars: high concentration screen, read-out: % of control remaining.

Counter-ions that a name gives are not always drawn. Like-named read-outs stand apart in the source and are kept apart here.

In the case of `C[C@H](O)[C@H](O)C1=Nc2c(nc(N)[nH]c2=O)NC1` [7,8-Dihydro-L-biopterin], the remaining activity at 1.25 µM in assay [1] (Well no.=7401) is 110%. For the same compound, in assay [2] (Well no.=7401), the remaining activity at 3.75 µM was determined as 102%.
With `O=c1ccc2ccc(O)c(O)c2o1` [7,8-dihydroxy-2H-chromen-2-one], the remaining activity at 1.25 µM in assay [1] (Well no.=5782) was found to be 105%. For the same compound, the remaining activity at 3.75 µM in assay [2] (Well no.=5782) amounted to 108%.
Regarding `COc1cc2c(cc1-c1c(C)noc1C)ncc1[nH]c(=O)n([C@H](C)c3ccccn3)c12` [7-(3,5-dimethyl-4-isoxazolyl)-8-methoxy-1-[(1R)-1-(2-pyridinyl)ethyl]-1,3-dihydro-2H-imidazo[4,5-c]quinolin-2-one], in assay [1] (Well no.=5813), the remaining activity at 1.25 µM came to 101%. Also, the remaining activity at 3.75 µM in assay [2] (Well no.=5813) came out at 102%.
For the compound `CC(=O)OCC1=C(C(=O)O)N2C(=O)[C@@H](N)[C@H]2SC1` [7-Aminocephalosporanic acid], the remaining activity at 1.25 µM in assay [1] (Well no.=5286) worked out at 98.5%. In addition, in assay [2] (Well no.=5286), the remaining activity at 3.75 µM is 96%.
On to `O=c1cc(-c2ccccc2)[nH]c2nc(Cl)ccc12` [7-Chloro-4-hydroxy-2-phenyl-1,8-naphthyridine], for which the remaining activity at 1.25 µM in assay [1] (Well no.=324) worked out at 98.8%. Besides, in assay [2] (Well no.=324), the remaining activity at 3.75 µM was 99.1%.
For the compound `O=C(O)c1cc(O)c2ccc(Cl)cc2n1` [7-Chlorokynurenic acid], in assay [1] (Well no.=581), the remaining activity at 1.25 µM worked out at 104%. For the same compound, the remaining activity at 3.75 µM in assay [2] (Well no.=581) was 103%.
Turning to `O=c1cc(-c2ccccc2)oc2cc(O)ccc12` [7-Hydroxyflavone], the remaining activity at 1.25 µM in assay [1] (Well no.=3293) amounted to 97.8%. In addition, the remaining activity at 3.75 µM in assay [2] (Well no.=3293) came to 103%.
Turning to `O=[N+]([O-])c1cccc2cn[nH]c12` [7-Nitroindazole], the remaining activity at 1.25 µM in assay [1] (Well no.=955) is 107%. Besides, in assay [2] (Well no.=955), the remaining activity at 3.75 µM came out at 100%.
Consider `O=C(CCCCCCc1ccccc1)c1ncc(-c2ccccn2)o1` [7-phenyl-1-[5-(2-pyridinyl)-1,3-oxazol-2-yl]-1-heptanone], for which the remaining activity at 1.25 µM in assay [1] (Well no.=5997) was determined as 92.2%. Also, the remaining activity at 3.75 µM in assay [2] (Well no.=5997) was 91.9%.
With `O=c1ccc2cc3ccoc3cc2o1` [7H-furo[3,2-g]chromen-7-one], the remaining activity at 1.25 µM in assay [1] (Well no.=5431) worked out at 101%. The remaining activity at 3.75 µM in assay [2] (Well no.=5431) was determined as 104%.
In the case of `CCCCC[C@H](O)/C=C/C=C/C=C/[C@H](O)C/C=C\CCCC(=O)O` [8(R),15(S)-DIHETE all trans], in assay [1] (Well no.=4377), the remaining activity at 1.25 µM stood at 102%. Further, the remaining activity at 3.75 µM in assay [2] (Well no.=4377) came out at 105%.
`CCCCC[C@H](O)/C=C/C=C\C=C\[C@@H](O)C/C=C\CCCC(=O)O` [8(S),15(S)-DIHETE]: the remaining activity at 1.25 µM in assay [1] (Well no.=4371) stood at 102%. Besides, the remaining activity at 3.75 µM in assay [2] (Well no.=4371) turned out to be 99.4%.
With `CCCCC/C=C\C/C=C\C/C=C\CCCCCCC(=O)O` [8(Z), 11(Z), 14(Z)-Eicosatrienoic Acid], the remaining activity at 1.25 µM in assay [1] (Well no.=4548) is 91.1%. Moreover, the remaining activity at 3.75 µM in assay [2] (Well no.=4548) was found to be 96.4%.
On to `CCCCCCCCCCC/C=C\CCCCCCC(=O)O` [8(Z)-Eicosenoic acid], for which the remaining activity at 1.25 µM in assay [1] (Well no.=4404) was 102%. The remaining activity at 3.75 µM in assay [2] (Well no.=4404) was found to be 102%.
Turning to `Cn1c(=O)c2c(nc(/C=C/c3cccc(Cl)c3)n2C)n(C)c1=O` [8-(3-Chlorostyryl)caffeine], the remaining activity at 1.25 µM in assay [1] (Well no.=727) turned out to be 100%. For the same compound, in assay [2] (Well no.=727), the remaining activity at 3.75 µM worked out at 97.2%.
As to `Nc1ncnc2c1nc(Sc1ccc(Cl)cc1)n2C1OC2COP(=O)(O)O[C@@H]2[C@@H]1O` (stereo partly shown) [8-(4-Chlorophenylthio)-cAMP sodium], the remaining activity at 1.25 µM in assay [1] (Well no.=126) was 104%. Moreover, the remaining activity at 3.75 µM in assay [2] (Well no.=126) was found to be 105%.
For `Nc1ncnc2c1nc(Br)n2[C@@H]1O[C@@H]2COP(=O)(O)O[C@H]2[C@H]1O` [8-Bromo-cAMP sodium], the remaining activity at 1.25 µM in assay [1] (Well no.=129) worked out at 108%. For the same compound, in assay [2] (Well no.=129), the remaining activity at 3.75 µM worked out at 111%.
For `Nc1nc2c(nc(Br)n2[C@@H]2O[C@@H]3COP(=O)(O)O[C@H]3[C@H]2O)c(=O)[nH]1` [8-Bromo-cGMP sodium], the remaining activity at 1.25 µM in assay [1] (Well no.=214) worked out at 102%. The remaining activity at 3.75 µM in assay [2] (Well no.=214) is 102%.
In the case of `Cn1c(=O)c2[nH]c(C3CCCC3)nc2n(C)c1=O` [8-Cyclopentyl-1,3-dimethylxanthine], the remaining activity at 1.25 µM in assay [1] (Well no.=723) was 98.4%. Further, the remaining activity at 3.75 µM in assay [2] (Well no.=723) was found to be 101%.
With `CCCn1c(=O)c2[nH]c(C3CCCC3)nc2n(CCC)c1=O` [8-Cyclopentyl-1,3-dipropylxanthine], the remaining activity at 1.25 µM in assay [1] (Well no.=675) turned out to be 93.6%. For the same compound, the remaining activity at 3.75 µM in assay [2] (Well no.=675) came out at 97.1%.
For `Nc1nc2c([nH]c(=O)n2[C@H]2C[C@H](O)[C@@H](CO)O2)c(=O)[nH]1` [8-Hydroxy-2'-deoxyguanosine], the remaining activity at 1.25 µM in assay [1] (Well no.=7113) came to 105%. Moreover, the remaining activity at 3.75 µM in assay [2] (Well no.=7113) is 105%.
Consider `COCc1nc2c([nH]1)c(=O)n(C)c(=O)n2CC(C)C` [8-Methoxymethyl-3-isobutyl-1-methylxanthine], for which the remaining activity at 1.25 µM in assay [1] (Well no.=970) was 103%. In addition, in assay [2] (Well no.=970), the remaining activity at 3.75 µM was determined as 102%.
Take `CCCCC/C=C/C/C=C/CCCCCCCC(=O)O` [9(E),12(E)-Octadecadienoic acid]: the remaining activity at 1.25 µM in assay [1] (Well no.=4356) came to 105%. Moreover, the remaining activity at 3.75 µM in assay [2] (Well no.=4356) is 104%.
As to `CCCCC/C=C\C=C\[C@H](CCCCCCCC(=O)O)OO` [9(S)-HPODE], in assay [1] (Well no.=4386), the remaining activity at 1.25 µM was 97.7%. In addition, the remaining activity at 3.75 µM in assay [2] (Well no.=4386) was found to be 98%.
For the compound `CCCCCCCC/C=C\CCCCCCCC(=O)O` [9(Z)-Octadecenoic acid], the remaining activity at 1.25 µM in assay [1] (Well no.=4590) is 101%. Also, in assay [2] (Well no.=4590), the remaining activity at 3.75 µM amounted to 98.1%.
In the case of `CCCC/C=C\CCCCCCCC(=O)O` [9(Z)-Tetradecenoic acid], the remaining activity at 1.25 µM in assay [1] (Well no.=4268) is 102%. The remaining activity at 3.75 µM in assay [2] (Well no.=4268) was determined as 98%.
As for `O=C1NC(=O)c2c1c1c3ccccc3n3c1c1c2c2ccccc2n1C1CCC3O1` [9,10,11,12-Tetrahydro-9,12-epoxy-1H-diindolo[1,2,3-fg:3',2',1'-kl]pyrrolo[3,4-i][1,6]benzodiazocine-1,3(2H)-dione], the remaining activity at 1.25 µM in assay [1] (Well no.=2578) was 99%. In assay [2] (Well no.=2578), the remaining activity at 3.75 µM amounted to 101%.
As to `CN1C[C@H](CO)C[C@@H]2c3cccc4[nH]cc(c34)C[C@H]21` [9,10-Dihydrolysergol], the remaining activity at 1.25 µM in assay [1] (Well no.=3468) stood at 108%. Besides, in assay [2] (Well no.=3468), the remaining activity at 3.75 µM is 109%.
Turning to `Nc1c2c(nc3ccccc13)CCCC2` [9-Amino-1,2,3,4-tetrahydroacridine hydrochloride], the remaining activity at 1.25 µM in assay [1] (Well no.=157) is 102%. Also, the remaining activity at 3.75 µM in assay [2] (Well no.=157) turned out to be 102%.
Turning to `CC1=C(/C=C/C(C)=C\C=C\C(C)=C\C(=O)O)C(C)(C)CCC1` [9-cis Retinoic acid], the remaining activity at 1.25 µM in assay [1] (Well no.=3136) stood at 98.3%; in assay [1] (Well no.=4428), 103%. In addition, the figures for the remaining activity at 3.75 µM in assay [2] (Well no.=3136) and in assay [2] (Well no.=4428) were 95.8% and 102%, respectively.
Regarding `c1ccc2c(Oc3nc(Nc4ccc(N5CCOCC5)cc4)c4ncn(C5CCCCC5)c4n3)cccc2c1` [9-cyclohexyl-N-[4-(4-morpholinyl)phenyl]-2-(1-naphthyloxy)-9H-purin-6-amine], the remaining activity at 1.25 µM in assay [1] (Well no.=5695) was found to be 98.5%. Further, in assay [2] (Well no.=5695), the remaining activity at 3.75 µM came out at 97.8%.

The values are drawn from publication PMC8286840, “Identifying SARS-CoV-2 antiviral compounds by screening for small molecule inhibitors of Nsp3 papain-like protease” (Biochemical Journal, 2021).
